{"source": "patent US4162324A", "about": "“Antibiotics 890A1 and 890A3” (Merck & Co., Inc., priority 1977, dated 1979)", "key": {"Bacillus sp. MB-633": {"tested_on": "Bacillus sp. MB-633", "assay": "In vitro antibacterial spectrum profile, zone of inhibition", "type": "cell-based", "settings": "SP.MB633, 182 μg/ml, read-out: Inhib. Zone Diam.", "procedure": "(§1) The test to determine the antibiotic spectrum profile is carried out by application of a 0.015 ml. droplet on the surface of a 100×15 mm. petri plate containing 5 ml. of seeded nutrient agar and 0.2% yeast extract. The antibiotic 890A1 is tested at a level of 33 μg/ml. and the antibiotic 890A3 is tested at a level of 182 μg/ml."}, "[1]": {"tested_on": "Corynebacterium pseudoidph. ATCC 9742", "assay": "In vitro antibacterial spectrum profile, zone of inhibition", "type": "cell-based", "settings": "ATCC9742, 182 μg/ml, read-out: Inhib. Zone Diam.", "procedure": "as §1"}, "[2]": {"tested_on": "Proteus vulgaris ATCC 21100", "assay": "In vitro antibacterial spectrum profile, zone of inhibition", "type": "cell-based", "settings": "ATCC21100, 182 μg/ml, read-out: Inhib. Zone Diam.", "procedure": "as §1"}, "[3]": {"tested_on": "Alcaligenes faecalis ATCC 213", "assay": "In vitro antibacterial spectrum profile, zone of inhibition", "type": "cell-based", "settings": "ATCC213, 182 μg/ml, read-out: Inhib. Zone Diam.", "procedure": "as §1"}, "[4]": {"tested_on": "Erwinia atroseptica ATCC 4466", "assay": "In vitro antibacterial spectrum profile, zone of inhibition", "type": "cell-based", "settings": "Pectobacterium atrosepticum, ATCC4466; 182 μg/ml; read-out: Inhib. Zone Diam."}, "[5]": {"tested_on": "Brucella bronchiseptica ATCC 4617", "assay": "microbe, parasite or virus in culture", "type": "cell-based", "settings": "Bordetella bronchiseptica, ATCC4617, read-out: Inhib. Zone Diam."}, "Sarcina lutea ATCC 9341": {"tested_on": "Sarcina lutea ATCC 9341", "assay": "In vitro antibacterial spectrum profile, zone of inhibition", "type": "cell-based", "settings": "Micrococcus luteus, ATCC9341; 182 μg/ml; read-out: Inhib. Zone Diam."}, "[6]": {"tested_on": "Vibrio percolans ATCC 8461 + 2 × 10^5 units/ml penicillinase", "assay": "In vitro antibacterial spectrum profile, zone of inhibition, with penicillinase", "type": "cell-based", "settings": "Comamonas terrigena, ATCC8461, 182 μg/ml, read-out: Inhib. Zone Diam."}, "penicillinase": {"tested_on": "penicillinase", "assay": "Resistance to degradation by penicillinase", "type": "biochemical", "settings": "compared with 890A1", "procedure": "Bio-Gel fraction 63 is combined with fractions 61, 66 and 67 from the Bio-Gel column. These four combined fractions have a total of 235 absorbance units at 300 nm. To this is added 0.2 ml. of 1M Tris-HCl buffer, ph 7.5, and 0.2 ml. of penicillinase [Difco \"Bacto-Penase,\" containing 500,000 units per ml. (1000 LU/ml.) wherein the term LU refers to Levy units; 1,000 LU will inactivate 500,000 units of penicillin G].\nAfter 113 minutes at 23° C., an additional 0.2 ml. of penicillinase is added. After an additional 7 hours at room temperature, another 0.2 ml. of penicillinase is added, and after an additional two hours at room temperature, the reaction mixture is chilled in an ice bath. The terminated reaction mixture is diluted to 15 ml. by addition of 5 ml. of deionized water. The absorbance of the diluted reacted preparation is 6.3 at 300 nm of which 2.64 is extinguishable by reaction with cysteine."}, "[7]": {"tested_on": "Streptococcus agalactiae MB-2875", "assay": "In vitro antibacterial spectrum profile, zone of inhibition", "type": "cell-based", "settings": "MB2875, 182 μg/ml, read-out: Inhib. Zone Diam."}, "[8]": {"tested_on": "Bacillus subtilis ATCC 6633", "assay": "In vitro antibacterial spectrum profile, zone of inhibition", "type": "cell-based", "settings": "ATCC6633, 182 μg/ml, read-out: Inhib. Zone Diam."}, "[9]": {"tested_on": "Escherichia coli ATCC 9637", "assay": "In vitro antibacterial spectrum profile, zone of inhibition, synthetic medium", "type": "cell-based", "settings": "ATCC9637, 182 μg/ml, synthetic medium, read-out: Inhib. Zone Diam."}, "[10]": {"tested_on": "Klebsiella pneumoniae MB-1264", "assay": "In vitro antibacterial spectrum profile, zone of inhibition", "type": "cell-based", "settings": "MB1264, 182 μg/ml, read-out: Inhib. Zone Diam."}, "[11]": {"tested_on": "Proteus vulgaris (episome) MB-2112", "assay": "In vitro antibacterial spectrum profile, zone of inhibition", "type": "cell-based", "settings": "182 μg/ml, read-out: Inhib. Zone Diam."}, "[12]": {"tested_on": "Vibrio percolans ATCC 8461", "assay": "Bioassay, agar plate disc-diffusion method", "settings": "890A1 value defined as standard"}, "[13]": {"tested_on": "Salmonella gallinarum MB-1287", "assay": "In vitro antibacterial spectrum profile, zone of inhibition", "type": "cell-based", "settings": "Salmonella enterica, 182 μg/ml, read-out: Inhib. Zone Diam."}, "[14]": {"tested_on": "Pseudomonas stutzeri ATCC 11607", "assay": "In vitro antibacterial spectrum profile, zone of inhibition", "type": "cell-based", "settings": "Stutzerimonas stutzeri, ATCC11607; 182 μg/ml; read-out: Inhib. Zone Diam."}, "[15]": {"tested_on": "Streptococcus faecium MB-2820", "assay": "In vitro antibacterial spectrum profile, zone of inhibition", "type": "cell-based", "settings": "Enterococcus faecium, MB2820; 182 μg/ml; read-out: Inhib. Zone Diam."}, "[16]": {"tested_on": "Vibrio percolans ATCC 8461", "assay": "In vitro antibacterial spectrum profile, zone of inhibition", "type": "cell-based", "settings": "Comamonas terrigena, ATCC8461; 182 μg/ml; read-out: Inhib. Zone Diam."}, "[17]": {"tested_on": "Proteus mirabilis MB-3126", "assay": "In vitro antibacterial spectrum profile, zone of inhibition", "type": "cell-based", "settings": "MB3126, 182 μg/ml, read-out: Inhib. Zone Diam."}, "Escherichia coli MB-1418": {"tested_on": "Escherichia coli MB-1418", "assay": "In vitro antibacterial spectrum profile, zone of inhibition", "type": "cell-based", "settings": "MB1418, 182 μg/ml, read-out: Inhib. Zone Diam."}, "[18]": {"tested_on": "Serratia marcescens ATCC 990", "assay": "In vitro antibacterial spectrum profile, zone of inhibition", "type": "cell-based", "settings": "ATCC990, 182 μg/ml, read-out: Inhib. Zone Diam."}, "[19]": {"tested_on": "Streptococcus faecalis MB-753", "assay": "In vitro antibacterial spectrum profile, zone of inhibition", "type": "cell-based", "settings": "Enterococcus faecalis, MB753; 182 μg/ml; read-out: Inhib. Zone Diam."}, "[20]": {"tested_on": "Staphylococcus aureus MB-698", "assay": "In vitro antibacterial spectrum profile, zone of inhibition", "type": "cell-based", "settings": "MB698, read-out: Inhib. Zone Diam."}, "[21]": {"tested_on": "Xanthomonas vesicatoria MB-815", "assay": "In vitro antibacterial spectrum profile, zone of inhibition", "type": "cell-based", "settings": "MB815, 182 μg/ml, read-out: Inhib. Zone Diam."}, "[22]": {"tested_on": "Aerobacter aerogenes MB-835", "assay": "In vitro antibacterial spectrum profile, zone of inhibition", "type": "cell-based", "settings": "Klebsiella aerogenes, MB835; 182 μg/ml; read-out: Inhib. Zone Diam."}, "[23]": {"tested_on": "Pseudomonas aeruginosa MB-979", "assay": "In vitro antibacterial spectrum profile, zone of inhibition", "type": "cell-based", "settings": "MB979, 182 μg/ml, read-out: Inhib. Zone Diam."}, "[24]": {"tested_on": "Staphlococcus aureus ATCC 6538 P", "assay": "In vitro antibacterial spectrum profile, zone of inhibition", "type": "cell-based", "settings": "read-out: Inhib. Zone Diam."}, "Proteus vulgaris MB-1012": {"tested_on": "Proteus vulgaris MB-1012", "assay": "In vitro antibacterial spectrum profile, zone of inhibition", "type": "cell-based", "settings": "MB1012, 182 μg/ml, read-out: Inhib. Zone Diam."}, "[25]": {"tested_on": "Vibrio percolans resistant to ceph. C MB-2566", "assay": "In vitro antibacterial spectrum profile, zone of inhibition", "type": "cell-based", "settings": "Comamonas terrigena, read-out: Inhib. Zone Diam."}, "[26]": {"tested_on": "Pseudomonas aeruginosa MB-2824", "assay": "In vitro antibacterial spectrum profile, zone of inhibition", "type": "cell-based", "settings": "MB2824, 182 μg/ml, read-out: Inhib. Zone Diam."}, "Electrophoresis": {"assay": "Electrophoresis", "type": "physicochemical", "settings": "neutral pH"}}, "data": [{"smiles": "CC(=O)NCCSC1=C(C(=O)O)N2C(=O)C(C(C)O)C2C1", "note": "(centres unmarked) [Antibiotic 890A3]", "values": [{"measurement": "zone of inhibition at 182 µg/mL", "setting": "Bacillus sp. MB-633", "result": 37, "unit": "mm"}, {"measurement": "zone of inhibition at 182 µg/mL", "setting": "[1]", "result": 36, "unit": "mm"}, {"measurement": "zone of inhibition at 182 µg/mL", "setting": "[2]", "result": 34, "unit": "mm"}, {"measurement": "zone of inhibition at 182 µg/mL", "setting": "[3]", "result": 34, "unit": "mm"}, {"measurement": "zone of inhibition at 182 µg/mL", "setting": "[4]", "result": 30, "unit": "mm"}, {"measurement": "zone of inhibition at 182 µg/mL", "setting": "[5]", "result": 27, "unit": "mm"}, {"measurement": "zone of inhibition at 182 µg/mL", "setting": "Sarcina lutea ATCC 9341", "result": 44, "unit": "mm"}, {"measurement": "zone of inhibition at 182 µg/mL", "setting": "[6]", "result": 35, "unit": "mm"}, {"measurement": "resistance to degradation by penicillinase", "setting": "penicillinase", "result": "relatively higher resistance"}, {"measurement": "zone of inhibition at 182 µg/mL", "setting": "[7]", "result": 30, "unit": "mm"}, {"measurement": "zone of inhibition at 182 µg/mL", "setting": "[8]", "result": 40, "unit": "mm"}, {"measurement": "zone of inhibition at 182 µg/mL", "setting": "[9]", "result": 29, "unit": "mm"}, {"measurement": "zone of inhibition at 182 µg/mL", "setting": "[10]", "result": 33, "unit": "mm"}, {"measurement": "zone of inhibition at 182 µg/mL", "setting": "[11]", "result": 38, "unit": "mm"}, {"measurement": "antibiotic potency", "setting": "[12]", "result": 31, "unit": "units per HAEA300 unit"}, {"measurement": "zone of inhibition at 182 µg/mL", "setting": "[13]", "result": 33, "unit": "mm"}, {"measurement": "zone of inhibition at 182 µg/mL", "setting": "[14]", "result": 32, "unit": "mm"}, {"measurement": "zone of inhibition at 182 µg/mL", "setting": "[15]", "result": 24, "unit": "mm"}, {"measurement": "zone of inhibition at 182 µg/mL", "setting": "[16]", "result": 40, "unit": "mm"}, {"measurement": "zone of inhibition at 182 µg/mL", "setting": "[17]", "result": 30, "unit": "mm"}, {"measurement": "zone of inhibition at 182 µg/mL", "setting": "Escherichia coli MB-1418", "result": 32, "unit": "mm"}, {"measurement": "zone of inhibition at 182 µg/mL", "setting": "[18]", "result": 28, "unit": "mm"}, {"measurement": "zone of inhibition at 182 µg/mL", "setting": "[19]", "result": 17, "unit": "mm"}, {"measurement": "zone of inhibition at 182 µg/mL", "setting": "[20]", "result": 34, "unit": "mm"}, {"measurement": "zone of inhibition at 182 µg/mL", "setting": "[21]", "result": 26, "unit": "mm"}, {"measurement": "zone of inhibition at 182 µg/mL", "setting": "[22]", "result": 30, "unit": "mm"}, {"measurement": "zone of inhibition at 182 µg/mL", "setting": "[23]", "result": 0, "unit": "mm"}, {"measurement": "zone of inhibition at 182 µg/mL", "setting": "[24]", "result": 36, "unit": "mm"}, {"measurement": "zone of inhibition at 182 µg/mL", "setting": "Proteus vulgaris MB-1012", "result": 24, "unit": "mm"}, {"measurement": "zone of inhibition at 182 µg/mL", "setting": "[25]", "result": 34, "unit": "mm"}, {"measurement": "zone of inhibition at 182 µg/mL", "setting": "[26]", "result": 32, "unit": "mm"}, {"measurement": "movement on electrophoresis", "setting": "Electrophoresis", "result": "acidic substance which moves to the positive pole on electrophoresis at neutral pH"}]}]}
